Measurements taken from patent publication US10017527B2, “KLK4 inhibitors” (Universiteit Antwerpen, priority 2014, dated 2018).

What was measured:
Format in all cases: biochemical
[1] = molecular target: T1, Matriptase (Homo sapiens, UniProt Q9Y5Y6); test: Matriptase inhibition
T1 sequence (Q9Y5Y6 1-855): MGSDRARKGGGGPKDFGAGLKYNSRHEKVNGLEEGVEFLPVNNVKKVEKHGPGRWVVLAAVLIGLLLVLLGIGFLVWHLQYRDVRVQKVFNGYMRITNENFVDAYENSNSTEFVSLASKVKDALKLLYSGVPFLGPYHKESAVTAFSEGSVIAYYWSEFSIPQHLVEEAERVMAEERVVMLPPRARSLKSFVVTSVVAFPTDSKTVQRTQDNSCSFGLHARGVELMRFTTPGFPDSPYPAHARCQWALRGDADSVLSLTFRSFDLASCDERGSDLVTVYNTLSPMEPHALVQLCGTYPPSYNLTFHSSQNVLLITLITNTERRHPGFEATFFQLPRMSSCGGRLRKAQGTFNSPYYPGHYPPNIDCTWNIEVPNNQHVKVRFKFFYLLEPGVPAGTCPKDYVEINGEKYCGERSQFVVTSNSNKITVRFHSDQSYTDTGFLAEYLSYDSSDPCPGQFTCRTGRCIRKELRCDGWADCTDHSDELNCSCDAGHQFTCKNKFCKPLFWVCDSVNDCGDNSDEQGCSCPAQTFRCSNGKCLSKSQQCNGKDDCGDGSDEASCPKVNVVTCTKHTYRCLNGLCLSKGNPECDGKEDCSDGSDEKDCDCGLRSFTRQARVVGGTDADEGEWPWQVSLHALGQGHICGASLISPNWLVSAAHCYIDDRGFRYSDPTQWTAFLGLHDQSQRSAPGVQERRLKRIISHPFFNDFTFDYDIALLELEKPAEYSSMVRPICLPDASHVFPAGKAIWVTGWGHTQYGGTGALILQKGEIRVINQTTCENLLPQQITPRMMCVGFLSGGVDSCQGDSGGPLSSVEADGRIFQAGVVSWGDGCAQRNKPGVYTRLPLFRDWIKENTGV

[2] = molecular target: T2, Neurtophil Elastase(human) (Homo sapiens, UniProt P08246); test: Neutrophil elastase inhibition, chromogenic substrate MeOSuc-Ala-Ala-Pro-Val-pNA
T2 construct: purchased Enzo-life sciences
T2 sequence (P08246 30-267): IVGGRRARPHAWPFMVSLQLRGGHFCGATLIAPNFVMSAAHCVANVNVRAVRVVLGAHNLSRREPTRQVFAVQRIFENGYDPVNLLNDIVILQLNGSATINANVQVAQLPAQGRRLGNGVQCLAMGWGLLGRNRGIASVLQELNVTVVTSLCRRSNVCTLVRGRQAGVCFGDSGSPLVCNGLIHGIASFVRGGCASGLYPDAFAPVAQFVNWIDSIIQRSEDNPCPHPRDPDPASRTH
Text: (§1) The IC50 values For KLK1, KLK2 and KLK8 were obtained in a similar way. For plasmin, tPA, thrombin, Fxa, HNE, Plasma kallikrein Chromogenic substrates were used (absorption: 405 nm). (KLK2, KLK4, KLK8 were supplied by Viktor Magdolen TUMunich (TUM)).

[3] = molecular target: T3, KLK8 (human) (Homo sapiens, UniProt O60259); test: KLK8 inhibition, fluorogenic substrate Boc-Val-Pro-Arg-AMC
T3 construct: purchased Viktor Magdolen, TUMunich (TUM), supplied by an academic laboratory
T3 sequence (O60259 33-260): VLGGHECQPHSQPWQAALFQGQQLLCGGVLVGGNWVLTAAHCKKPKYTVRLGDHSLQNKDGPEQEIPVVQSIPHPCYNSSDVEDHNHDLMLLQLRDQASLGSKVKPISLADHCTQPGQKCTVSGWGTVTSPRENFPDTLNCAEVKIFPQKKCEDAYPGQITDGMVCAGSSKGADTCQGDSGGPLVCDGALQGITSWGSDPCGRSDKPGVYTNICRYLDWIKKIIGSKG
Text: as §1

[4] = molecular target: T4, Plasmine (human plasma) (Homo sapiens, UniProt P00747); test: Plasmin inhibition, chromogenic substrate Biophen CS-21(66)
T4 construct: purchased Sigma-Aldrich; host or cells: human plasma
Text: as §1

[5] = molecular target: T5, KLK2 (human) (Homo sapiens, UniProt P20151); test: KLK2 inhibition, fluorogenic substrate H-Pro-Phe-Arg-AMC
T5 construct: purchased Viktor Magdolen, TUMunich (TUM), supplied by an academic laboratory
Text: as §1

[6] = molecular target: T6, Thrombine (human plasma) (Homo sapiens, UniProt P00734); test: Thrombin inhibition, chromogenic substrate Biophen CS-21(66)
T6 construct: purchased Sigma-Aldrich; host or cells: human plasma

[7] = molecular target: AcHE (Homo sapiens, UniProt P22303); test: AcHE inhibition
[8] = molecular target: T7, KLK4 (Homo sapiens, UniProt Q9Y5K2); test: KLK4 enzymatic inhibition, fluorogenic substrate Boc-Val-Pro-Arg-AMC
T7 construct: purchased Viktor Magdolen (TUM), supplied by an academic laboratory
Method: The substrate was obtained form Bachem and the enzyme was provided by Viktor Magdolen (TUM). The reaction was monitored with an excitation wavelength of 355 nm and emission wavelength of 460 nm. The initial rate was determined between 2500000 and 4500000 mRFU/min. The reaction mixture contained 25 μM substrate and approximately 1 mU of enzyme in 145 μL of buffer in a final volume of […]. A 50 mM Tris buffer, pH 8.3, was used. From each inhibitor concentration, 5 μL was added, obtaining a final concentration from 0 to 250 μM in a total volume of 0.2 mL. Activity measurements were routinely performed in duplicate. […] IC50 values were obtained by fitting the data with the four-parameter logistics equation using Grafit 7.
[formula] where s=slope factor, v=rate, I0=inhibitor concentration, and range=the fitted uninhibited value minus the background. The equation assumes they falls with increasing x.
(§2) Inhibitor stock solutions were prepared in DMSO and stored at −20° C. Because the compounds described in this paper completely inactivate KLK4 following pseudo first-order kinetics, the IC50 value is inversely correlated with the second-order rate constant of inactivation. For a simple pseudo first-order inactivation process, the activity after incubation with inhibitor (vi) varies with the inhibitor concentration (i), as described in the following equation: vi=v0×e^−k t, where vo is the activity in absence of inhibitor, k is the second-order rate constant of inactivation, and t is the time. The inactivation rate constant was determined from the time course of inhibition.

[9] = molecular target: T8, PlasmaKLK (human plasma) (Homo sapiens, UniProt P03952); test: Plasma kallikrein inhibition, chromogenic substrate Biophen CS-31(02)
T8 construct: purchased Sigma-Aldrich; host or cells: human plasma
Text: as §1

[10] = molecular target: T9, tPA (recombinant) (Homo sapiens, UniProt P00750); test: tPA inhibition, chromogenic substrate Biophen CS-05(88)
T9 construct: purchased Nodia
Text: as §1

[11] = molecular target: T7, KLK4; test: KLK4 inactivation kinetics from progress curves (kobs vs inhibitor concentration); conditions: for Irreversible (KLK4): irreversible binding to KLK4, Yes/No
Method: as §2
The inhibitor was mixed with the substrate (250 μM final concentration), and the buffer solution with the enzyme was added at the time zero. […] The progress curves show the absorbance of aminomethylcoumarine produced as a function of time. Initially, no inhibitor is bound to the enzyme, and the tangent to the progress curve (dA/dt) is proportional to the concentration of the free enzyme. The concentration of free enzyme decreases over time due to the kinetics of inhibitor binding, as described above. Progress curves were recorded in pseudo first-order conditions ([I]0>>[E]0) and with less than 10% conversion of the substrate during the entire time course. In these conditions, dA/dt decreases exponentially with time. The progress curves were fitted with the integrated rate equation to yield a value for kobs, a pseudofirst-order rate constant At=v0[1−e^−k^obs^t]/kobs+A0 where At=absorbance at time t, A0=absorbance at time zero, and v0=uninhibited initial rate.
The apparent second-order rate constant (kapp) was calculated from the slope of the linear part of the plot of kobs versus the inhibitor concentration ([I]0). In case of competition between the inhibitor and the substrate, kapp is smaller than the “real” second order rate constant k discussed above because a certain fraction of the enzyme is present as an enzyme-substrate complex. kapp depends on the substrate concentration used in the experiment, as described by Lambeir et al. (Lambeir, Borloo et al. 1996).

[12] = molecular target: T10, uPA (recombinant) (Homo sapiens, UniProt P00749); test: uPA inhibition, chromogenic substrate Biophen CS-61(44)
T10 construct: purchased Nodia

[13] = molecular target: T11, KLK1 (human) (Homo sapiens, UniProt P06870); test: KLK1 inhibition, fluorogenic substrate H-Pro-Phe-Arg-AMC
T11 construct: purchased Prospec
Text: as §1

[14] = molecular target: T12, FXa (Homo sapiens, UniProt P00742); test: FXa inhibition, chromogenic substrate Biophen CS-11(32)
T12 construct: purchased Nodia
Text: as §1

T8 sequence (P03952 391-638 limits assumed): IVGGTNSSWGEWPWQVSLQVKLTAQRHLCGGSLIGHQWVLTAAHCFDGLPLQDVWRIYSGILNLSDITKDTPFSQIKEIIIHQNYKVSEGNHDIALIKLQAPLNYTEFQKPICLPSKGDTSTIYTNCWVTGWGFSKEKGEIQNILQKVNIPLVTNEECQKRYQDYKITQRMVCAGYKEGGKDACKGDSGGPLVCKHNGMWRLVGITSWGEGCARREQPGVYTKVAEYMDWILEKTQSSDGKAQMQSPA
T8 sequence (P03952 20-390 partner limits assumed): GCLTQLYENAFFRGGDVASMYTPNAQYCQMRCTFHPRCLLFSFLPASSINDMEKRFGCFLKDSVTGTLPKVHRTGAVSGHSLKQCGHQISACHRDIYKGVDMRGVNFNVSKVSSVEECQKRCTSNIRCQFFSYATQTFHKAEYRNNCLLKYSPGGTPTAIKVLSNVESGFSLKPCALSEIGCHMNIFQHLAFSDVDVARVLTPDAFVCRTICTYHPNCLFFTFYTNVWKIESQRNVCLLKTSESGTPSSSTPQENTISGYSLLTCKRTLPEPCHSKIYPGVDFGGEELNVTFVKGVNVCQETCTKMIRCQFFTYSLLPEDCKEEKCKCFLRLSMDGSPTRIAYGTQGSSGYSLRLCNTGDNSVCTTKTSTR
T11 sequence (P06870 25-262): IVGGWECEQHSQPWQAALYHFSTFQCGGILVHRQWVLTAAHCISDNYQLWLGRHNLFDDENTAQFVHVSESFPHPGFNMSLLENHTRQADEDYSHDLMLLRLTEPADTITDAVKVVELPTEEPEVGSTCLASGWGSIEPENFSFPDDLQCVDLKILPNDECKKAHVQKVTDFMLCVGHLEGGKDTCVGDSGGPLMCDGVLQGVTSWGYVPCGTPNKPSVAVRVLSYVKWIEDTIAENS
T12 sequence (P00742 235-488 limits assumed): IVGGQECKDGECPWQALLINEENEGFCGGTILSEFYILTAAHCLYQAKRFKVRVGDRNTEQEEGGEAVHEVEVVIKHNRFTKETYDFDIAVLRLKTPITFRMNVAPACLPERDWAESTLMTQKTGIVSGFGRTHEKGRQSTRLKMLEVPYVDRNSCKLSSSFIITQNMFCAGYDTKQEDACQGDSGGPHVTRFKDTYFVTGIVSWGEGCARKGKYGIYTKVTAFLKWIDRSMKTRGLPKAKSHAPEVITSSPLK
T12 sequence (P00742 41-179 partner limits assumed): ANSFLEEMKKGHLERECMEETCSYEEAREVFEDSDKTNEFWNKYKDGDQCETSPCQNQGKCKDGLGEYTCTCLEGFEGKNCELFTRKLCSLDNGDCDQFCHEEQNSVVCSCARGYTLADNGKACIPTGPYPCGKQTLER
T5 sequence (P20151 25-261): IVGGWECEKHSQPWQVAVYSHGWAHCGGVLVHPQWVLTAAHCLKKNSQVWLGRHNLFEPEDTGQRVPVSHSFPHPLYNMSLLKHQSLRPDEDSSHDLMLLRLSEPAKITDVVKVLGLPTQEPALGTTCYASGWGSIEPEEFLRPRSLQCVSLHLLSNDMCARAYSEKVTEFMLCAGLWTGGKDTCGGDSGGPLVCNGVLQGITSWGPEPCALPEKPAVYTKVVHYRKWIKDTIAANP
Sequence of AcHE (P22303 32-614): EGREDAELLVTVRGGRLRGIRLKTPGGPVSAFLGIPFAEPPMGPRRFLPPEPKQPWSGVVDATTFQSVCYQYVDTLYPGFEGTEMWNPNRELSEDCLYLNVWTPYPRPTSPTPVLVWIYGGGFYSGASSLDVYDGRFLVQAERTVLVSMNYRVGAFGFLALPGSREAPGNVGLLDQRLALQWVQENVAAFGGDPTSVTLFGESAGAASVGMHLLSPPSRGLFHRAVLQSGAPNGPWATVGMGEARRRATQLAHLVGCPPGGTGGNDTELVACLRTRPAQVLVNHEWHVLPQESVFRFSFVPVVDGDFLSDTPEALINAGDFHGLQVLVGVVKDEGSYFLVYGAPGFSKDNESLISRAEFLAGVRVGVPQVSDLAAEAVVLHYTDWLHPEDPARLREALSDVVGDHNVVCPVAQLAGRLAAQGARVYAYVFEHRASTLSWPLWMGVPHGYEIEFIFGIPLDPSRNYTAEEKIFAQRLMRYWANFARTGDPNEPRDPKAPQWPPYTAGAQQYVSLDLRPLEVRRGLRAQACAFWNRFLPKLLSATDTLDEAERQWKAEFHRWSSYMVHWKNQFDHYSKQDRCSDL
T7 sequence (Q9Y5K2 31-254): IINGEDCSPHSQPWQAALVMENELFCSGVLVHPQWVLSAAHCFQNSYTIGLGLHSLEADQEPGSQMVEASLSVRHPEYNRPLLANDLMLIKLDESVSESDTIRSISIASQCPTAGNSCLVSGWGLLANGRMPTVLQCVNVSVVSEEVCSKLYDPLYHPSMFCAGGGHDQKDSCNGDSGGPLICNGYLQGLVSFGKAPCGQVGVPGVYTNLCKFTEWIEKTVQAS
T9 sequence (P00750 36-562, species assumed): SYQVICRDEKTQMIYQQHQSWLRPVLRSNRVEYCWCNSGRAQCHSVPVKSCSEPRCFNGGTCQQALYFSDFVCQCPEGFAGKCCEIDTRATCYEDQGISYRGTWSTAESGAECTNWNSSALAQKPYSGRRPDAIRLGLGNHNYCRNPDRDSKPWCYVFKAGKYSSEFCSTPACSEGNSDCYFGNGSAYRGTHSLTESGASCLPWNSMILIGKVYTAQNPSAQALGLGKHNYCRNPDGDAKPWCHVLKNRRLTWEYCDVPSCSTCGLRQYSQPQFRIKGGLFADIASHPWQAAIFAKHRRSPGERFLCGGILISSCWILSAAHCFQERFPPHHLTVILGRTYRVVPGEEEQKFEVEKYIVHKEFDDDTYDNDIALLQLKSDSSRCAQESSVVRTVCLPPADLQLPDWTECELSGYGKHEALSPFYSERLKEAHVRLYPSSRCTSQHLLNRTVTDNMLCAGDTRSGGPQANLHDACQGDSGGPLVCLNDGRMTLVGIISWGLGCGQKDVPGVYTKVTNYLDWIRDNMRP
T4 sequence (P00747 581-810 limits assumed): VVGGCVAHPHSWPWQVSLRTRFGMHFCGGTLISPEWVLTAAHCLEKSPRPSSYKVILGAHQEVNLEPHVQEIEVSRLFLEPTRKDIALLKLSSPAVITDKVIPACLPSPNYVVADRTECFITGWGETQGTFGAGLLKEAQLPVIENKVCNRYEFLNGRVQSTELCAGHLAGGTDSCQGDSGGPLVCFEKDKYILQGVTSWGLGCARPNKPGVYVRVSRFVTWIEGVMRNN
T4 sequence (P00747 98-580 partner limits assumed): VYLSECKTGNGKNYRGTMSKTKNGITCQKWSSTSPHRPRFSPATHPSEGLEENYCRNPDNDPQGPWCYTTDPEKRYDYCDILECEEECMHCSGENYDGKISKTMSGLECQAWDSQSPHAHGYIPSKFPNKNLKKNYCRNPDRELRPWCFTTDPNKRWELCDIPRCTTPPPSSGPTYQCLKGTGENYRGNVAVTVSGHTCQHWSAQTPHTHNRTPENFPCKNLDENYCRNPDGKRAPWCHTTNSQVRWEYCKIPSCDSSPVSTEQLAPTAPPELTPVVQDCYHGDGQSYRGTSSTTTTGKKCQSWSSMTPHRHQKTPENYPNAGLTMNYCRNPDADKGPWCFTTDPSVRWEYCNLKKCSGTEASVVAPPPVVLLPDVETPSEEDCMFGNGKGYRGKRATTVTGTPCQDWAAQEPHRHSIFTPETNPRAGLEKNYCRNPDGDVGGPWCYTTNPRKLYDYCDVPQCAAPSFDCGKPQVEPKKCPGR

Structure (SMILES) | IC50 [1] | IC50 [2] | IC50 [3] | IC50 [4] | IC50 [5] | IC50 [6] | IC50 [7] | IC50 [8] | IC50 [9] | IC50 [10] | binding mechanism against KLK4 [11] | IC50 [12] | IC50 [13] | IC50 [14] | kapp KLK4 ([11]; apparent second-order rate constant, substrate 250 μM) | Irreversible (KLK4) [11]
N=C(N)Nc1ccc(C(NC(=O)OCc2ccccc2)P(=O)(Oc2ccccc2)Oc2ccccc2)cc1 (stereo not drawn) [Compound 5a, benzyl (diphenoxyphosphoryl)(4-guanidinophenyl)methylcarbamate 2,2,2-trifluoroacetate, reference compound] | 2.5 to 10 µM | 10 to 250 µM | 1 to 2.5 µM | 2.5 to 10 µM | < 0.1 µM | > 250 µM | 10 to 250 µM | < 0.1 µM | 2.5 to 10 µM | > 250 µM | reversible | 2.5 to 10 µM | 0.1 to 1 µM | 2.5 to 10 µM | – | –
C#CCOCCOCCOC(=O)NC(c1ccc(NC(=N)N)cc1)P(=O)(Oc1ccccc1)Oc1ccccc1.O=C(O)C(F)(F)F (stereo not drawn) [Compound 27, 2-(2-(prop-2-yn-1-yloxy)ethoxy)ethyl ((diphenoxyphosphoryl)(4-guanidinophenyl)methyl)carbamate 2,2,2-trifluoroacetate] | 2.5 to 10 µM | 2.5 to 10 µM | 10 to 250 µM | – | 1 to 2.5 µM | > 250 µM | 10 to 250 µM | < 0.1 µM | 10 to 250 µM | > 250 µM | – | 2.5 to 10 µM | 2.5 to 10 µM | 10 to 250 µM | 16000 M⁻¹ s⁻¹ | Yes/
N=C(N)Nc1ccc(CC(NC(=O)OCc2ccccc2)P(=O)(Oc2ccccc2)Oc2ccccc2)cc1 (stereo not drawn) [UPA1, reference compound] | 0.1 to 1 µM | 10 to 250 µM | < 0.1 µM | 2.5 to 10 µM | < 0.1 µM | 1 to 2.5 µM | 10 to 250 µM | < 0.1 µM | 2.5 to 10 µM | 10 to 250 µM | reversible | – | 2.5 to 10 µM | 10 to 250 µM | – | No
